Marks after values point to notes of the source that are not given here.
Assays:
[1] = test system: 4 mm punch biopsy wounds of the upper inner arm; assay: Topical oestrogen patch clinical trial of wound healing in elderly men and women; assay type: in vivo, human; design: key to Collagen Quantities: +=minimal quantities; ++=less than normal skin; +++=similar to normal skin; ++++=greater than normal skin; settings: for scarring, microscopically and macroscopically (FIGS. 7 and 8): scored as in 2.1.4.2; for Collagen Quantities: oestradiol patch, DAY 7; for % Rate of re-epithelialisation / Wound area: day 7 post-wounding
Method: Approval for this study was given by the local Ethics Committee. Forty health-status defined volunteers split into four groups: (i) GROUP 3A comprised ten women with mean age 76.3 yr (Sd 5.6) who received oestrogen supplements (25 μg/24 hrs of oestradiol) (ii) GROUP 3B comprised ten women with mean age 72.5 yr (Sd 7.1) who received placebo instead of oestrogen. (iii) GROUP 3C comprised ten men with mean age 69.6 yr (Sd 3.6) who received oestrogen supplements (ii) GROUP 3D comprised ten men with mean age 71.8 yr (Sd 8.9) who received placebo instead of oestrogen. After informed consent subjects from each of Groups 3A, 3B, 3C and 3D underwent two 4 mm punch biopsies from the upper inner arm (a non sun-exposed site) following local infiltration with 1 ml 1% lignocaine. Each biopsy of normal skin was bisected and one-half embedded in Optimal Cutting Temperature compound (Miles Inc. Elkhart, Ind.), frozen over liquid nitrogen, and stored at −70° C., and one-half snap-frozen in liquid nitrogen and stored at −70° C. The area for biopsy was covered by a 2×3 cm patch (placebo Groups 3B and 3D or active oestradiol 3A and 3C) through which the biopsies were made. The patch was covered by a Multisorb dry gauze dressing (Smith & Nephew) and both were removed after 24 hrs. The active patches contained sufficient oestradiol such that the wound sites were exposed to 25 μg/24 hrs of oestradiol. Five subjects from Groups 3A, 3B, 3C and 3D underwent re-excision of the wounds at day 7 post-wounding, and the other five subjects from each group at day 84 post-wounding. The left upper inner arm was cleaned with isopropyl alcohol, elliptical excisions of the wounds were made following 1% lignocaine infiltration and two sutures were used to close the gap. Each wound was bisected and processed as described above (3.1.3). 7 μm paraffin-embedded sections were strained with H&E and Masson's Trichrome. The rate of re-epithelialisation (at day 7 post-wounding), and wound sizes as determined by planimetry, were determined with image analysis using an Olympus Vanox camera and PC image capture system. Collagen quantity within the wound was determined by two observers blinded to the identity of the specimen on the following scale +=minimal quantities; ++=less than normal skin; +++=similar to normal skin; ++++=greater than normal skin. The wound stiffness at day 80 was determined using the non-disruptive Dimensional Analysis System (Das). Previous studies have correlated wound breaking strength values (ultimate pressure at failure) to wound stiffness using this system. The system applies a multiaxial load (negative pressure) to the wound and measures the deformation due to the load of two reflective targets placed at the wound edges, using a high resolution camera and video processor. Pressure was applied to a maximum of 100 mmHg and then released, Stiffness was measured between 20 and 80 mmHg.

TGF-β1 mRNA = assay: Dermal fibroblast TGF-β1 mRNA levels by quantitative RT-PCR; assay type: cell-based, human
Method: Human dermal fibroblasts were explanted from the 4 mm punch biopsy specimens of normal skin. Fibroblasts used in the study were cultured at 37° C. in 95% air; 5% CO2 at 100% relative humidity, in phenol red-free DMEM (Gibco), 100 U/ml penicillin, […], 1 mM sodium pyruvate, 2 mM L-glutamine, non-essential amino acids and charcoal-stripped 10% FCS (Gibco, UK) (to remove endogenous steroids).
Cultured cells at passage 3-5 were seeded overnight in 24-well plates at a density of 2×10^5 cells per well in serum free media. The following morning oestrogen or progesterone (made soluble by the incorporation of the carrier cyclodextrin; Sigma, Poole), ranging from 1 pM to 1 mM doses, were added to the medium for 24 hrs. All samples were assessed in triplicate. The media was removed after the 24 hr incubation. 1 mg/ml of aprotinin, leupeptin and pepstatin A was then added to the media which was used immediately in a TGF-β assay (see below). Controls included cyclodextrin at the appropriate concentration, and serum-free medium alone.
Quantitative RT-PCR was used to determine the steady-state levels of TGF-β1 mRNA in the acute wound and in 10^5 cells from the fibroblast in vitro studies (2.1.5) Cellular RNA was isolated from specimens using the method of Chomcynski and Sacchi (Anal, Biochem, 162 p156-159 (1987)). Purity of extraction was assessed using the A260/280 ratio spectrophotometrically, which in all cases was above 1.75. […] Quantitative RT-PCR was performed as described by Tarnuzzer et al. (Biotechniques 20 p670-674 (1996)) Briefly, the reverse transcriptase reaction was carried out using 8 decreasing dilutions of template with 1 μg of authentic cellular RNA. β-actin was used as a positive control. PCR reactions were carried out on the reverse transcription reaction. Electrophoresis was then carried out on a 2% agarose gel containing […] ethidium bromide at 100 v for 1 hr using an Electro 4 tank (Hybaid, Teddington, UK) and photographed using a dual intensity transilluminator (Genetic Research instrumentation, Dunmow (UK) with a Polaroid MP 4+ camera and 665 Polaroid Black and White film, Photographic images were captured using a PC Image Software system (Foster Finley, Newcastle, UK) on a 486 DX2 Dan computer (Dan, UK) and a CCD camera (Swift, UK). The band intensities were determined by image analysis using a Macintosh computer and NIH software programme. Band intensity values were normalised based on the molecular weights of the products. The log of the ratio of band intensities within each lane was plotted against the log of the copy number of template added per reaction. Quantities of target messages were determined where the ratio of template and target band intensities were equal to 1. Copy numbers were expressed per total RNA (for wound tissue) or expressed per cell (for in vitro studies). The latter were calculated by assuming 26 pg RNA/cell.

[2] = OLD person (2A or 2B) fibroblasts, mM dose
[3] = OLD person (2A or 2B) fibroblasts, nM dose
[4] = OLD person (2A or 2B) fibroblasts, pM dose
[5] = OLD person (2A or 2B) fibroblasts, μM dose
[6] = YOUNG person (2C) fibroblasts, mM dose
[7] = YOUNG person (2C) fibroblasts, nM dose
[8] = YOUNG person (2C) fibroblasts, pM dose
[9] = YOUNG person (2C) fibroblasts, μM dose
[10] = FEMALES (3A), patch 25 μg/24 hrs of oestradiol for 24 hrs
[11] = MALES (3C), patch 25 μg/24 hrs of oestradiol for 24 hrs

Structure (SMILES) | scarring, microscopically and macroscopically (FIGS. 7 and 8) [1] | TGF-beta mRNA LEVELS (TGF-β1 mRNA; [2]) | TGF-beta mRNA LEVELS (TGF-β1 mRNA; [3]) | TGF-beta mRNA LEVELS (TGF-β1 mRNA; [4]) | TGF-beta mRNA LEVELS (TGF-β1 mRNA; [5]) | TGF-beta mRNA LEVELS (TGF-β1 mRNA; [6]) | TGF-beta mRNA LEVELS (TGF-β1 mRNA; [7]) | TGF-beta mRNA LEVELS (TGF-β1 mRNA; [8]) | TGF-beta mRNA LEVELS (TGF-β1 mRNA; [9]) | Collagen Quantities ([1]; FEMALES (3A)) | % Rate of re-epithelialisation [1, 10] | Wound area [1, 10] | Collagen Quantities ([1]; MALES (3C)) | % Rate of re-epithelialisation [1, 11] | Wound area [1, 11] | Wound area ([1]; oestrogen treatment, p<0.05) | Wound stiffness (Dimensional Analysis System) ([1]; day 80 post-wounding) | rate of re-epithelialization ([1]; female (3A) and male subjects (3C) relative to placebo controls) | TGF-β1 mRNA levels, control versus treated fibroblasts (TGF-β1 mRNA; varying concentrations of oestrogen, fibroblasts from all females regardless of age)
CC(=O)[C@H]1CC[C@H]2[C@@H]3CCC4=CC(=O)CC[C@]4(C)[C@H]3CC[C@]12C [Progesterone, progesterone] | superior scaring | 1300 ± 430 copies/cell | 1000 ± 275 copies/cell | 950 ± 210 copies/cell | 1110 ± 290 copies/cell | 1100 ± 310 copies/cell | 1145 ± 206 copies/cell | 1130 ± 254 copies/cell | 1090 ± 280 copies/cell |  |  |  |  |  |  |  |  |  | 
C[C@]12CC[C@@H]3c4ccc(O)cc4CC[C@H]3[C@@H]1CC[C@@H]2O [Oestrogen] | inferior quality of wound | 990 ± 325 copies/cell | 1100 ± 370 copies/cell | 1155 ± 215 copies/cell | 1100 ± 235 copies/cell | 1250 ± 188 copies/cell | 1300 ± 272 copies/cell | 1190 ± 300 copies/cell | 1180 ± 130 copies/cell | ++ | 74.5 (10.5)* % | 1204 (49)* | ++ | 62.5 (21.7) % | 1173 (61)* | significantly reduced | not affected | accelerated | No significant differences
